Data published in patent publication US9938269B2, “Inhibitor compounds of phosphodiesterase type 10A” (ABBVIE INC., priority 2011, dated 2018).
Where a name gives a salt, the structure may show the parent alone.

What was measured:
PDE10A (human) = biological target: T1, PDE10A (human) (Homo sapiens, UniProt Q9Y233); test: Measurement of PDE activity (HTRF cAMP kit), human PDE10A; type: biochemical; conditions: PDE enzymatic reaction, substrate 20 nM for PDE10, 60 minutes at 29 C
T1 construct: purchased BPS Bioscience
Procedure, shortened: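 Recombinant human PDE10A (10–250 pM range across PDEs) with 20 nM cAMP substrate in 20 mM Tris-HCl pH 7.5, 10 mM MgCl2, 0.1% BSA, compound pre-mixed with enzyme. Ran 60 min at 29 °C. Remaining cAMP read by HTRF, converted to % of uninhibited activity, and IC50 fitted.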

[1] = Determination of the microsomal half-life, rat liver microsomes; conditions: for microsomal CLint at 0.5 μM: rat, liver microsomes, pH 7.4
[2] = Determination of the microsomal half-life, human liver microsomes; conditions: for microsomal CLint at 0.5 μM: human, liver microsomes, pH 7.4; for Human mCl (mikrosomal clearance): human liver microsomes, 0.5 μM test substance, 0.25 mg microsomal protein, pH 7.4, 37° C., NADPH

T1 sequence (Q9Y233 whole entry): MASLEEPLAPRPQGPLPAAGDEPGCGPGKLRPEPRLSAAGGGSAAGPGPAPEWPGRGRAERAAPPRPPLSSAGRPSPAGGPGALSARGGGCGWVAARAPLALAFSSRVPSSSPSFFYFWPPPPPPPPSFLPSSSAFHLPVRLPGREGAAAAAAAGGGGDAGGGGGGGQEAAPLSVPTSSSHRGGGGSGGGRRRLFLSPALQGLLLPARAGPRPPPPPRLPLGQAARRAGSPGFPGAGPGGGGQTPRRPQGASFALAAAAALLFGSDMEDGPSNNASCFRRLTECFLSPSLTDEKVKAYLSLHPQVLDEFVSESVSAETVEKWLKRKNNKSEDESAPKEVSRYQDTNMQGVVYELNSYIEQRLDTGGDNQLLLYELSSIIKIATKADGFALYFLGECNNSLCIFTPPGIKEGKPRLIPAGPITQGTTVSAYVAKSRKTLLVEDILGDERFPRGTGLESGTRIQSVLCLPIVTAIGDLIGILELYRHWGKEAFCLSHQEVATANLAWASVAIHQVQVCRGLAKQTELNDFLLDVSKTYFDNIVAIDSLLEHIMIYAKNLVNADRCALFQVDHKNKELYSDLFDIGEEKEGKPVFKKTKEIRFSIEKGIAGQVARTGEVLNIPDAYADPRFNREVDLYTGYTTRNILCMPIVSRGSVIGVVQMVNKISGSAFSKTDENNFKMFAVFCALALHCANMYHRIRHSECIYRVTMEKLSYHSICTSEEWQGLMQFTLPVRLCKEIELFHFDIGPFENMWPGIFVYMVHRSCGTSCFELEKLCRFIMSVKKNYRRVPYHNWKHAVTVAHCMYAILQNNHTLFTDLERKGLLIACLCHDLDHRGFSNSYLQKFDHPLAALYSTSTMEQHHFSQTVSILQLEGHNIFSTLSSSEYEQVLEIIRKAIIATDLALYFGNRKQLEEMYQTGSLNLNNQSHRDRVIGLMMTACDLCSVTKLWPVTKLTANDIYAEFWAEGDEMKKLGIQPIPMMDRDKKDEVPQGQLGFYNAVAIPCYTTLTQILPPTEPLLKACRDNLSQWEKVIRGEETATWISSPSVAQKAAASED

IC50 (PDE10A (human)) [nM]	microsomal CLint at 0.5 μM [1] [µL/min/mg]	microsomal CLint at 0.5 μM [2] [µL/min/mg]	Structure (SMILES)	Rat mCl (mikrosomal clearance) ([1]; rat liver microsomes, 0.5 μM test substance, 0.25 mg microsomal protein, pH 7.4, 37° C., NADPH)	Human mCl (mikrosomal clearance) [2]
< 100	100 to 220	< 100	O=C1c2c(-c3cn[nH]c3)ccnc2CN1CCc1ccc2ccccc2n1 [Example 156, 4-(1H-Pyrazol-4-yl)-6-(2-quinolin-2-yl-ethyl)-6,7-dihydro-pyrrolo[3,4-b]pyridin-5-one]		
200 to 500	100 to 220	100 to 220	O=C1c2c(cccc2N2CCOCC2)CN1CCc1cccc(-c2ncccn2)c1 [Example 120, 7-Morpholino-2-(3-(pyrimidin-2-yl)phenethyl)isoindolin-1-one]		
< 100	> 220	100 to 220	COc1ccc(-c2ccnn2C)c2c1CN(CCc1ccc3ccccc3n1)C2=O [Example 210, 4-Methoxy-7-(2-methyl-2H-pyrazol-3-yl)-2-(2-quinolin-2-yl-ethyl)-2,3-dihydro-isoindol-1-one]		
< 100	< 100	< 100	O=C1c2c(cccc2-c2ccncc2)CN1CCc1cn2ccccc2n1 [Example 20, 2-(2-Imidazo[1,2-a]pyridin-2-yl-ethyl)-7-pyridin-4-yl-2,3-dihydro-isoindol-1-one]		
200 to 500	< 100	< 100	O=C1c2c(cccc2-c2cccnc2)CN1CCc1nc2ncccc2[nH]1 [Example 253, 2-[2-(1H-Imidazo[4,5-b]pyridin-2-yl)-ethyl]-7-pyridin-3-yl-2,3-dihydro-isoindol-1-one]		
200 to 500	> 220	100 to 220	Cc1cnc(CCN2Cc3nccc(-c4ccncc4)c3C2=O)cc1C [compound 507, 6-[2-(4,5-Dimethyl-2-pyridyl)ethyl]-4-(4-pyridyl)-7H-pyrrolo[3,4-b]pyridin-5-one trifluoroacetate]		
< 100	< 100	< 100	Cn1c(CCN2Cc3nccc(N4CCOCC4)c3C2=O)nc2ccccc21 [Example 216, 6-[2-(1-Methyl-1H-benzoimidazol-2-yl)-ethyl]-4-morpholin-4-yl-6,7-dihydro-pyrrolo[3,4-b]pyridin-5-one]		
100 to 200	< 100	< 100	Cn1nccc1-c1ccnc2c1C(=O)N(CCc1nc3ccccc3n1C)C2 [Example 214, 6-[2-(1-Methyl-1H-benzoimidazol-2-yl)-ethyl]-4-(2-methyl-2H-pyrazol-3-yl)-6,7-dihydro-pyrrolo[3,4-b]pyridin-5-one]		
100 to 200	> 220	< 100	O=C1c2cccc(-c3ccncc3)c2CN1CCc1nc2ccccc2s1 [compound 431, 2-[2-(1,3-Benzothiazol-2-yl)ethyl]-4-(4-pyridyl)isoindolin-1-one]		
< 100	100 to 220	< 100	O=C1c2cccc(-c3cscn3)c2CN1CCc1cn2ccccc2n1 [compound 537, 2-(2-Imidazo[1,2-a]pyridin-2-ylethyl)-4-thiazol-4-yl-isoindolin-1-one]		
< 100	< 100	< 100	O=C1c2c(-c3ccnnc3)ccnc2CN1CCc1ccc2ccccc2n1 [Example 338, 4-Pyridazin-4-yl-6-(2-quinolin-2-yl-ethyl)-6,7-dihydro-pyrrolo[3,4-b]pyridin-5-one]		
< 100	< 100	100 to 220	Cc1ccc(-c2cccc3c2C(=O)N(CCc2ccc4ccccc4n2)C3)cn1 [Example 91, 7-(6-Methyl-pyridin-3-yl)-2-(2-quinolin-2-yl-ethyl)-2,3-dihydro-isoindol-1-one]		
< 100	100 to 220	> 220	Cn1c(CCN2Cc3cccc(-c4ccncc4)c3C2=O)nc2c(F)cccc21 [Example 300, 2-[2-(4-Fluoro-1-methyl-1H-benzoimidazol-2-yl)-ethyl]-7-pyridin-4-yl-2,3-dihydro-isoindol-1-one trifluoroacetate]		
< 100	< 100	> 220	COc1ccc(-c2ccncc2)c2c1CN(CCc1nc3ccccc3n1C)C2=O [Example 370, 4-Methoxy-2-[2-(1-methyl-1H-benzoimidazol-2-yl)-ethyl]-7-pyridin-4-yl-2,3-dihydro-isoindol-1-one]		
< 100	> 220	100 to 220	O=C1c2c(cc(F)cc2-c2ccncc2)CN1CCc1ccc2ccccc2n1 [Example 15, 5-Fluoro-7-pyridin-4-yl-2-(2-quinolin-2-yl-ethyl)-2,3-dihydro-isoindol-1-one]		
100 to 200	< 100	< 100	O=C1c2c(cccc2N2CCS(=O)(=O)CC2)CN1CCc1nc2ccccc2[nH]1 [Example 175, 2-[2-(1H-Benzoimidazol-2-yl)-ethyl]-7-(1,1-dioxo-thiomorpholin-4-yl)-2,3-dihydro-isoindol-1-one]		
100 to 200	> 220	< 100	Cc1cccc(CCN2Cc3nccc(N4CCOCC4)c3C2=O)n1 [compound 466, 6-[2-(6-Methyl-2-pyridyl)ethyl]-4-morpholino-7H-pyrrolo[3,4-b]pyridin-5-one]		
< 100	100 to 220	100 to 220	O=C1c2c(C3=CCOCC3)ccnc2CN1CCc1ccc2ccccc2n1 [Example 265, 4-(3,6-Dihydro-2H-pyran-4-yl)-6-(2-quinolin-2-yl-ethyl)-6,7-dihydro-pyrrolo[3,4-b]pyridin-5-one]		
< 100	< 100	< 100	O=C1c2c(cccc2N2CCS(=O)(=O)CC2)CN1CCc1ccc2ccccc2n1 [Example 104, 7-(1,1-Dioxo-1-thiomorpholin-4-yl)-2-(2-quinolin-2-yl-ethyl)-2,3-dihydro-isoindol-1-one]		
< 100	< 100	100 to 220	Cn1c(CCN2Cc3cccc(-c4cncnc4)c3C2=O)nc2ccccc21 [Example 197, 2-[2-(1-Methyl-1H-benzoimidazol-2-yl)-ethyl]-7-pyrimidin-5-yl-2,3-dihydro-isoindol-1-one]		
< 100	< 100	< 100	CN(C)CCOc1ccc(-c2ccncc2)c2c1CN(CCc1ccc3ccccc3n1)C2=O [compound 529, 4-(2-Dimethylamino-ethoxy)-7-pyridin-4-yl-2-(2-quinolin-2-yl-ethyl)-2,3-dihydro-isoindol-1-one]		
< 100	< 100	100 to 220	CCc1ccn2cc(CCN3Cc4nccc(N5CCOCC5)c4C3=O)nc2c1 [compound 555, 6-[2-(7-Ethylimidazo[1,2-a]pyridin-2-yl)ethyl]-4-morpholino-7H-pyrrolo[3,4-b]pyridin-5-one]		
< 100	< 100	< 100	O=C1c2c(-c3ccncc3)ccnc2CN1CCc1ccc2ncccc2n1 [compound 512, 6-[2-(1,5-Naphthyridin-2-yl)ethyl]-4-(4-pyridyl)-7H-pyrrolo[3,4-b]pyridin-5-one]		
200 to 500	< 100	< 100	Cc1ccc(CCN2Cc3nccc(-c4ccncc4)c3C2=O)nc1 [compound 481, 6-[2-(5-Methyl-2-pyridyl)ethyl]-4-(4-pyridyl)-7H-pyrrolo[3,4-b]pyridin-5-one trifluoroacetate]		
< 100	100 to 220	< 100	O=C1c2cccc(-c3ccncc3)c2CN1CCc1cn2ccccc2n1 [Example 316, 2-(2-Imidazo[1,2-a]pyridin-2-yl-ethyl)-4-pyridin-4-yl-2,3-dihydro-isoindol-1-one]		
200 to 500	< 100	< 100	O=C1c2c(-c3cncnc3)ccnc2CN1CCc1nc2ccccn2n1 [Example 215, 4-Pyrimidin-5-yl-6-(2-[1,2,4]triazolo[1,5-a]pyridin-2-yl-ethyl)-6,7-dihydro-pyrrolo[3,4-b]pyridin-5-one]		

Structure (SMILES)	IC50 (PDE10A (human)) [nM]	microsomal CLint at 0.5 μM [1] [µL/min/mg]	microsomal CLint at 0.5 μM [2] [µL/min/mg]	Rat mCl (mikrosomal clearance) ([1]; rat liver microsomes, 0.5 μM test substance, 0.25 mg microsomal protein, pH 7.4, 37° C., NADPH)	Human mCl (mikrosomal clearance) [2]
O=C1c2c(N3CCC4(COC4)C3)ccnc2CN1CCc1nc2ccccc2s1 [compound 424, 6-[2-(1,3-Benzothiazol-2-yl)ethyl]-4-(2-oxa-7-azaspiro[3.4]octan-7-yl)-7H-pyrrolo[3,4-b]pyridin-5-one]	< 100	< 100	< 100		
O=C(O)C(F)(F)F.O=C(O)C(F)(F)F.O=C1c2c(-c3ccc(F)cc3)ccnc2CN1CCc1ccc2ccccc2n1 [Example 160, 4-(4-Fluoro-phenyl)-6-(2-quinolin-2-yl-ethyl)-6,7-dihydro-pyrrolo[3,4-b]pyridin-5-one (di trifluoroacetate)]	< 100			∘ (∘ not avialable or >220 μl min^−1 mg^−1)	+ (+: 100-220 μl min^−1 mg^−1)
O=C(O)C(F)(F)F.O=C1c2c(-c3ccnc(F)c3)ccnc2CN1CCc1nc2ccccc2s1 [compound 421, 6-[2-(1,3-Benzothiazol-2-yl)ethyl]-4-(2-fluoro-4-pyridyl)-7H-pyrrolo[3,4-b]pyridin-5-one trifluoroacetate]	< 100	< 100			◯
